The source of these data is publication PMC5716070 (International Journal of Neuropsychopharmacology, 2017).

In brackets after ≈: the same amount, converted by molar mass. Several values for one entry are separate records, joined by “and”; a condition that tells them apart may be missing. Equal entries are not always repeated. Where two headings read alike, the source gives them in different places.

The nature of one series: clinical. Particulars: human, plasma, po, 60 mg.
A further series concerns SERT. The settings on record: cited from earlier work.
For a further series, the system named is NET. The settings on record: cited from earlier work.
[1] abbreviates: clinical dose, ref Nogami et al., 2013.

As for `CNCC[C@H](Oc1cccc2ccccc12)c1cccs1` [duloxetine], the concentration at 6 h in the series “clinical” was 80.8 ng/mL. Further, the SERT occupancy with SERT (20 mg, ref Takano et al., 2006) is 71.3%; in the series on SERT (60 mg, ref Takano et al., 2006) it was 81.8%; in the series on SERT (single dose 40 mg, ref Takano et al., 2006), 80.6% and ~80%. Also, the “EC50 for SERT occupancy” value with SERT (ref Abanades et al., 2011) was 0.00262 ± 0.00093 µg/mL; in the series with SERT (ref Takano et al., 2006), 0.0037 µg/mL.
With `CCN(CC)C(=O)C1(c2ccccc2)CC1CN` (stereo not shown) [milnacipran], the NET occupancy entry in the series on NET (setting [1]) is “low occupancy”. In addition, in the series with SERT (setting [1]), the SERT occupancy entry is given as “low occupancy”.
Consider `CNCCC=C1c2ccccc2CCc2ccccc21` [nortriptyline], for which the “EC50 (plasma drug concentration inducing 50% NET occupancy)” value in the series with NET (chronically administered 75–200 mg, patients with MDD, ref Takano et al., 2014) is 0.0798 µg/mL (≈ 0.303 µM); in the series with NET (single low dose (10–75 mg), healthy human volunteers, ref Sekine et al., 2010), 0.0598 µg/mL (≈ 0.227 µM).
